Experimental data: ChEMBL document CHEMBL3272271, “Folate antagonists. 13. 2,4-Diamino-6-](alpha,alpha,alpha-trifluoro-m-tolyl)thio]quinazoline and related 2,4-diamino-6-[(phenyl- and naphthyl)thio]quinazolines, a unique class of antimetabolites with extraordinary antimalarial and antibacterial effects” (J Med Chem, 1978)
Active and inactive are the calls of the source. The calls are words filed in the database; no cut-off is given here.

Columns and labels:
Plasmodium berghei [1] = experiment: Antimalarial activity against Plasmodium berghei infected in mouse assessed as increase in mean survival days of host at 10 mg/kg, sc administered 72 hrs after infection relative to control; type: functional; settings: route subcutaneous
Plasmodium berghei [2] = experiment: Antimalarial activity against Plasmodium berghei infected in mouse assessed as disease cure from parasite infection at 160 mg/kg, sc administered 72 hrs after infection; type: functional, organism-based; design: dose 160 mg/kg
Gallus gallus [3] = experiment: Toxicity in trophozoite-induced Plasmodium gallinaceum infected white leghorn chicken assessed as mortality at 120 mg/kg, sc administered 72 hrs after infection measured after 48 hrs; type: organism-based; design: dose 120 mg/kg, route subcutaneous; settings: in vivo
Plasmodium berghei [4] = experiment: Antimalarial activity against Plasmodium berghei infected in mouse assessed as disease cure from parasite infection at 40 mg/kg, sc administered 72 hrs after infection; type: functional, organism-based; design: dose 40 mg/kg
Gallus gallus [5] = experiment: Toxicity in sporozoite-induced Plasmodium gallinaceum infected white leghorn chicken assessed as mortality at 240 mg/kg, sc administered 72 hrs after infection measured up to 6 days; type: organism-based; design: dose 240 mg/kg, route subcutaneous; settings: in vivo
Plasmodium berghei [6] = experiment: Antimalarial activity against DDS-resistant Plasmodium berghei assessed as drug resistance relative to control; type: functional
Plasmodium berghei [7] = experiment: Antimalarial activity against Plasmodium berghei infected in mouse assessed as increase in mean survival days of host at 40 mg/kg, sc administered 72 hrs after infection relative to control; type: functional; settings: route subcutaneous
Plasmodium gallinaceum [8] = experiment: Antimalarial activity against trophozoite-induced Plasmodium gallinaceum infected in white leghorn chicken assessed as increase in mean survival days of host at 30 mg/kg, sc administered 72 hrs after infection relative to control; type: functional; settings: route subcutaneous
Plasmodium gallinaceum [9] = experiment: Antimalarial activity against trophozoite-induced Plasmodium gallinaceum infected in white leghorn chicken assessed as disease cure from parasite infection at 120 mg/kg, sc administered 72 hrs after infection; type: functional, organism-based; design: dose 120 mg/kg
Plasmodium gallinaceum [10] = experiment: Antimalarial activity against sporozoite-induced Plasmodium gallinaceum infected in white leghorn chicken assessed as increase in mean survival days of host at 60 mg/kg, sc administered 72 hrs after infection relative to control; type: functional; settings: route subcutaneous
Plasmodium gallinaceum [11] = experiment: Antimalarial activity against trophozoite-induced Plasmodium gallinaceum infected in white leghorn chicken assessed as disease cure from parasite infection at 30 mg/kg, sc administered 72 hrs after infection; type: functional, organism-based; design: dose 30 mg/kg
Plasmodium berghei [12] = experiment: Antimalarial activity against Plasmodium berghei infected in mouse assessed as disease cure from parasite infection at 80 mg/kg, sc administered 72 hrs after infection; type: functional, organism-based; design: dose 80 mg/kg
Plasmodium berghei [13] = experiment: Ratio of quinine hydrochloride SD90 to compound SD90 for trophozoite-induced Plasmodium berghei infected in mouse assessed as daily dose required to suppression of 90% parasite infection administered with diet for 6 days; type: functional
Plasmodium berghei [14] = experiment: Antimalarial activity against trophozoite-induced Plasmodium berghei infected in mouse assessed as daily dose required to suppression of 90% parasite infection administered with diet for 6 days; type: functional
Plasmodium gallinaceum [15] = experiment: Antimalarial activity against sporozoite-induced Plasmodium gallinaceum infected in white leghorn chicken assessed as increase in mean survival days of host at 15 mg/kg, sc administered 72 hrs after infection relative to control; type: functional; settings: route subcutaneous
Plasmodium berghei [16] = experiment: Antimalarial activity against Plasmodium berghei infected in mouse assessed as increase in mean survival days of host at 80 mg/kg, sc administered 72 hrs after infection relative to control; type: functional; settings: route subcutaneous
Plasmodium gallinaceum [17] = experiment: Antimalarial activity against trophozoite-induced Plasmodium gallinaceum infected in white leghorn chicken assessed as disease cure from parasite infection at 160 mg/kg, sc administered 72 hrs after infection; type: functional, organism-based; design: dose 160 mg/kg
Plasmodium gallinaceum [18] = experiment: Antimalarial activity against trophozoite-induced Plasmodium gallinaceum infected in white leghorn chicken assessed as disease cure from parasite infection at 60 mg/kg, sc administered 72 hrs after infection; type: functional, organism-based; design: dose 60 mg/kg
Plasmodium berghei [19] = experiment: Antimalarial activity against Plasmodium berghei infected in mouse assessed as disease cure from parasite infection at 320 mg/kg, sc administered 72 hrs after infection; type: functional, organism-based; design: dose 320 mg/kg
Plasmodium gallinaceum [20] = experiment: Antimalarial activity against sporozoite-induced Plasmodium gallinaceum infected in white leghorn chicken assessed as increase in mean survival days of host at 30 mg/kg, sc administered 72 hrs after infection relative to control; type: functional; settings: route subcutaneous
Plasmodium berghei [21] = experiment: Antimalarial activity against Plasmodium berghei infected in mouse assessed as increase in mean survival days of host at 20 mg/kg, sc administered 72 hrs after infection relative to control; type: functional; settings: route subcutaneous
Mus musculus [22] = experiment: Toxicity in Plasmodium berghei infected mouse assessed as mortality at 640 mg/kg, sc administered 72 hrs after infection measured after 2 to 5 days; type: organism-based; design: dose 640 mg/kg, route subcutaneous; settings: in vivo
Gallus gallus [23] = experiment: Toxicity in sporozoite-induced Plasmodium gallinaceum infected white leghorn chicken assessed as mortality at 120 mg/kg, sc administered 72 hrs after infection measured up to 6 days; type: organism-based; design: dose 120 mg/kg, route subcutaneous; settings: in vivo
Gallus gallus [24] = experiment: Toxicity in sporozoite-induced Plasmodium gallinaceum infected white leghorn chicken assessed as mortality at 480 mg/kg, sc administered 72 hrs after infection measured up to 6 days; type: organism-based; design: dose 480 mg/kg, route subcutaneous; settings: in vivo
Plasmodium gallinaceum [25] = experiment: Antimalarial activity against trophozoite-induced Plasmodium gallinaceum infected in white leghorn chicken assessed as increase in mean survival days of host at 60 mg/kg, sc administered 72 hrs after infection relative to control; type: functional; settings: route subcutaneous
Mus musculus [26] = experiment: Toxicity in Plasmodium berghei infected mouse assessed as mortality at 320 mg/kg, sc administered 72 hrs after infection measured after 2 to 5 days; type: organism-based; design: dose 320 mg/kg, route subcutaneous; settings: in vivo
Gallus gallus [27] = experiment: Toxicity in sporozoite-induced Plasmodium gallinaceum infected white leghorn chicken assessed as mortality at 60 mg/kg, sc administered 72 hrs after infection measured up to 6 days; type: organism-based; design: dose 60 mg/kg, route subcutaneous; settings: in vivo

For `CC1(C)N=C(N)N=C(N)N1c1ccc(Cl)cc1.Cl` [CHLORCYCLOGUANIL HYDROCHLORIDE], the MST (Plasmodium berghei [1]) was 4.9 days, the Activity (Plasmodium berghei [2]) was “Active” and the Activity (Gallus gallus [3]) was “Toxic”. For the same compound, the Activity (Plasmodium berghei [4]) was “Active”, the Activity (Gallus gallus [5]) was “Toxic” and the “fold change (FC)” value (Plasmodium berghei [6]) was less than 2. The MST (Plasmodium berghei [7]) was 13.4 days, the MST (Plasmodium gallinaceum [8]) was 11.7 days and the Activity (Plasmodium gallinaceum [9]) was “Active”. For the same compound, the MST (Plasmodium gallinaceum [10]) was 0 days, the Activity (Plasmodium gallinaceum [11]) was “Active” and the Activity (Plasmodium berghei [12]) was “Active”. It also gave a Ratio (Plasmodium berghei [13]) of 35, an SD90 (Plasmodium berghei [14]) of 2.1 mg/kg/day and an MST (Plasmodium gallinaceum [15]) of 0 days. For the same compound, the MST (Plasmodium berghei [16]) was 21.6 days, the Activity (Plasmodium gallinaceum [17]) was “Active” and the Activity (Plasmodium gallinaceum [18]) was “Active”. The Activity (Plasmodium berghei [19]) was “Active”, the MST (Plasmodium gallinaceum [20]) was 2.3 days and the MST (Plasmodium berghei [21]) was 7.9 days. For the same compound, the Activity (Mus musculus [22]) was “Toxic”, the Activity (Gallus gallus [23]) was “Toxic” and the Activity (Gallus gallus [24]) was “Toxic”. For the same compound, the MST (Plasmodium gallinaceum [25]) was 15.1 days, the Activity (Mus musculus [26]) was “Toxic” and the Activity (Gallus gallus [27]) was “Toxic”.
